In US6573275B1, “Bicyclic amines” (Syngenta Limited, priority 1995, dated 2003):

Test system: peach aphid (Myzus persicae)
Experiment: Insecticidal test against peach aphid, infested Chinese cabbage leaves sprayed
Assay type: in vivo
Details: peach aphid (Myzus persicae) on Chinese cabbage leaves, sprayed with 500 ppm composition unless otherwise stated, mortality assessed after 3 days
Protocol: This Example illustrates the insecticidal properties of the compounds of Formula I. The activity of the compounds of Formula I was determined using a variety of pests. The pests were treated with a liquid composition containing 500 parts per million (ppm) by weight of the compound unless otherwise stated. The compositions were made by dissolving the compound in acetone and ethanol (50:50) mixture and diluting the solutions with water containing 0.05% by weight of a wetting agent sold under the trade name “SYNPERONIC” NP8 until the liquid composition contained the required concentration of the compound. “SYNPERONIC” is a Registered Trade Mark.
The test procedure adopted with regard to each pest was basically the same and comprised supporting a number of the pests on a medium which was usually a substrate, a host plant or a foodstuff on which the pests feed, and treating either or both the medium and the pests with the compositions. The mortality of the pests was then assessed at periods usually varying from two to five days after the treatment.
In this test Chinese cabbage leaves were infested with aphids, the infested leaves were sprayed with the test composition, and the mortality assessed after 3 days.

## N#CC1(c2cncc(Cl)c2)CC2CCC(C1)N2c1ccc(C(F)(F)F)cc1 (stereo not drawn) [Compound 188]
  Score (grading of mortality): A (A indicates 80-100% mortality)

## N#CC1(c2cncc(Cl)c2)CC2CCC(C1)N2Cc1ccc([N+](=O)[O-])cc1 (stereo not drawn) [Compound 275]
  Score (grading of mortality): A (A indicates 80-100% mortality)

## C=CCOC(=O)N1C2CCC1CC(C#N)(c1cncc(Cl)c1)C2 (stereo not drawn) [Compound 90]
  Score (grading of mortality): A (A indicates 80-100% mortality)

## N#CC1(c2cc(F)cc(F)c2)CC2CCC(C1)N2CCO (stereo not drawn) [Compound 24]
  Score (grading of mortality): A (A indicates 80-100% mortality)

## N#CC1(c2cncc(Cl)c2)CC2CCC(C1)N2c1nc(CCl)ns1 (stereo not drawn) [Compound 167]
  Score (grading of mortality): A (A indicates 80-100% mortality)

## CC(C)(C)c1ccc(CN2C3CCC2CC(C#N)(c2cncc(Cl)c2)C3)cc1 (stereo not drawn) [Compound 246]
  Score (grading of mortality): A (A indicates 80-100% mortality)

## C=CCN1C2CCC1CC(C#N)(c1cccnc1)C2 (stereo not drawn) [Compound 35]
  Score (grading of mortality): A (A indicates 80-100% mortality)

## Cc1cccc(CN2C3CCC2CC(C#N)(c2cncc(Cl)c2)C3)c1 (stereo not drawn) [Compound 242]
  Score (grading of mortality): A (A indicates 80-100% mortality)

## C=COC(=O)N1C2CCC1CC(C#N)(c1cncc(C(=O)OCC)c1)C2 (stereo not drawn) [Compound 222, exo-3-(5-(ethoxycarbonyl)pyrid-3-yl)-endo-3-cyano-8-(vinyloxycarbonyl)-8-azabicyclo[3.2.1]octane]
  Score (grading of mortality): C (C indicates less than 40% mortality)

## N#CC1(c2cncc(Cl)c2)CC2CCC(C1)N2Cc1ccccc1Cl (stereo not drawn) [Compound 259]
  Score (grading of mortality): A (A indicates 80-100% mortality)

## N#CC1(c2cc(F)cc(F)c2)CC2CCC(C1)N2Cc1ccccn1 (stereo not drawn) [Compound 12]
  Score (grading of mortality): A (A indicates 80-100% mortality)

## CN1C2CCC1CC(C#N)(c1cncc(O)c1)C2 (stereo not drawn) [Compound 148, exo-3-(5-hydroxypyrid-3-yl)-endo-3-cyano-8-methyl-8-azabicyclo[3.2.1]octane]
  Score (grading of mortality): B (B indicates 40-79% mortality)

## N#CC1(c2cncc(Cl)c2)CC2CCC(C1)N2c1ccc([N+](=O)[O-])cc1 (stereo not drawn) [Compound 94]
  Score (grading of mortality): C (C indicates less than 40% mortality)

## CN1C2CCC1CC(C#N)(c1ccc([N+](=O)[O-])cc1F)C2 (stereo not drawn) [Compound 52]
  Score (grading of mortality): C (C indicates less than 40% mortality)

## CN1C2CCC1CC(C#N)(c1c(F)c(F)c(F)c(F)c1F)C2 (stereo not drawn) [Compound 4]
  Score (grading of mortality): A (A indicates 80-100% mortality)

## CN1C2CCC1CC(C#N)(c1cncc(C#N)c1)C2 (stereo not drawn) [Compound 304]
  Score (grading of mortality): A (A indicates 80-100% mortality)

## N#CC1(c2cncc(Cl)c2)CC2CCC(C1)N2Cc1cccc(Oc2ccc(F)cc2)c1 (stereo not drawn) [Compound 269]
  Score (grading of mortality): A (A indicates 80-100% mortality)

## N#CC1(c2cncc(Cl)c2)CC2CCC(C1)N2c1c(F)c(F)c(F)c(F)c1F (stereo not drawn) [Compound 151, exo-3-(5-chloropyrid-3-yl)-endo-3-cyano-8-pentafluorophenyl-8-azabicyclo[3.2.1]octane]
  Score (grading of mortality): A (A indicates 80-100% mortality)

## CN1C2CCC1CC(C#N)(c1cccc(F)c1F)C2 (stereo not drawn) [Compound 3]
  Score (grading of mortality): A (A indicates 80-100% mortality)

## N#CC1(c2cncc(Cl)c2)CC2CCC(C1)N2Cc1ccc(F)c(F)c1F (stereo not drawn) [Compound 271]
  Score (grading of mortality): A (A indicates 80-100% mortality)

## N#CC1(c2cncc(Cl)c2)CC2CCC(C1)N2Cc1cc(Br)cc(Br)c1 (stereo not drawn) [Compound 108]
  Score (grading of mortality): A (A indicates 80-100% mortality)

## N#CC1(c2cncc(Cl)c2)CC2CCC(C1)N2C(=O)F (stereo not drawn) [Compound 144, exo-3-(5-chloropyrid-3-yl)-endo-3-cyano-8-(fluorocarbonyl)-8-azabicyclo[3.2.1]octane]
  Score (grading of mortality): A (A indicates 80-100% mortality)

## C=COC(=O)N1C2CCC1CC(C#N)(c1cncc(-c3ccccc3)c1)C2 (stereo not drawn) [Compound 217, exo-3-(5-phenylpyrid-3-yl)-endo-3-cyano-8-(vinyloxycarbonyl)-8-azabicyclo[3.2.1]octane]
  Score (grading of mortality): A (A indicates 80-100% mortality)

## COc1ccc(C2(C#N)CC3CCC(C2)N3Cc2ccccc2)cc1 (single isomer, unassigned) [Compound 6]
  Score (grading of mortality): C (C indicates less than 40% mortality)

## C[C@@H](c1ccccc1)N1C2CCC1CC(C#N)(c1cncc(Cl)c1)C2 (stereo partly drawn) [Compound 122]
  Score (grading of mortality): A (A indicates 80-100% mortality)

## CN1C2CCC1CC(C#N)(c1cccc(Cl)n1)C2 (stereo not drawn) [Compound 71]
  Score (grading of mortality): A (A indicates 80-100% mortality)

## N#CC1(c2cc(F)cc(F)c2)CC2CCC(C1)N2CC(O)c1ccccc1 (stereo not drawn) [Compound 19]
  Score (grading of mortality): C (C indicates less than 40% mortality)

## CC(C)(C#N)N1C2CCC1CC(C#N)(c1cncc(Cl)c1)C2 (stereo not drawn) [Compound 223, exo-3-(5-chloropyrid-3-yl)-endo-3-cyano-8-(2-cyanoprop-2-yl)-8-azabicyclo[3.2.1]octane]
  Score (grading of mortality): C (C indicates less than 40% mortality)

## CC(C)CCN1C2CCC1CC(C#N)(c1cncc(Cl)c1)C2 (stereo not drawn) [Compound 280]
  Score (grading of mortality): A (A indicates 80-100% mortality)

## N#CC1(c2cncc(Cl)c2)CC2CCC(C1)N2CCCC(F)(F)F (stereo not drawn) [Compound 160]
  Score (grading of mortality): A (A indicates 80-100% mortality)

## N#CC1(c2cncc(Cl)c2)CC2CCC(C1)N2Cc1ccccc1[N+](=O)[O-] (stereo not drawn) [Compound 272]
  Score (grading of mortality): A (A indicates 80-100% mortality)

## N#CC1(c2cncc(Cl)c2)CC2CCC(C1)N2C(C(N)=O)c1ccccc1 (stereo not drawn) [Compound 135, exo-3-(5-chloropyrid-3-yl)-endo-3-cyano-8-(a-carbamylbenzyl)-8-azabicyclo[3.2.1]octane]
  Score (grading of mortality): A (A indicates 80-100% mortality)

## N#CC1(c2cncc(Cl)c2)CC2CCC(C1)N2Cc1cccc(Cl)c1 (stereo not drawn) [Compound 261]
  Score (grading of mortality): A (A indicates 80-100% mortality)

## CCOCCN1C2CCC1CC(C#N)(c1cncc(Cl)c1)C2 (stereo not drawn) [Compound 279]
  Score (grading of mortality): A (A indicates 80-100% mortality)

## CC(C)CN1C2CCC1CC(C#N)(c1cncc(Cl)c1)C2 (stereo not drawn) [Compound 276]
  Score (grading of mortality): A (A indicates 80-100% mortality)

## N#CC1(c2cncc(Cl)c2)CC2CCC(C1)N2S(=O)(=O)c1ccccc1 (stereo not drawn) [Compound 112]
  Score (grading of mortality): B (B indicates 40-79% mortality)

## N#Cc1ccccc1CN1C2CCC1CC(C#N)(c1cncc(Cl)c1)C2 (stereo not drawn) [Compound 267]
  Score (grading of mortality): A (A indicates 80-100% mortality)

## N#CC1(c2cncc(Cl)c2)CC2CCC(C1)N2C(=O)OCC1c2ccccc2-c2ccccc21 (stereo not drawn) [Compound 85]
  Score (grading of mortality): A (A indicates 80-100% mortality)

## COc1cncc(C2(C#N)CC3CCC(C2)N3C)c1 (stereo not drawn) [Compound 77, exo-3-(5-methoxypyrid-3-yl)-endo-3-cyano-8-methyl-8-azabicyclo[3.2.1]octane]
  Score (grading of mortality): A (A indicates 80-100% mortality)

## CC(C)(C)OC(=O)N1C2CCC1CC(C#N)(c1cncc(Cl)c1)C2 (stereo not drawn) [Compound 294]
  Score (grading of mortality): A (A indicates 80-100% mortality)

## COC(=N)CN1C2CCC1CC(C#N)(c1cc(F)cc(F)c1)C2 (stereo not drawn) [Compound 30]
  Score (grading of mortality): A (A indicates 80-100% mortality)

## N#CC1(c2cncc(Cl)c2)CC2CCC(C1)N2CC(F)(F)C(F)(F)C(F)(F)C(F)F (stereo not drawn) [Compound 133]
  Score (grading of mortality): A (A indicates 80-100% mortality)

## C=COC(=O)N1C2CCC1CC(C#N)(c1cncc(Cl)n1)C2 (stereo not drawn) [Compound 298]
  Score (grading of mortality): A (A indicates 80-100% mortality)

## CC(C)(C)C(=O)c1ccc(CN2C3CCC2CC(C#N)(c2cncc(Cl)c2)C3)cc1 (stereo not drawn) [Compound 245]
  Score (grading of mortality): A (A indicates 80-100% mortality)

## COC(=O)C(C)N1C2CCC1CC(C#N)(c1cncc(Cl)c1)C2 (single isomer, unassigned) [Compound 211]
  Score (grading of mortality): A (A indicates 80-100% mortality)

## N#CC1(c2cncc(Cl)c2)CC2CCC(C1)N2Cc1ccccc1F (stereo not drawn) [Compound 250]
  Score (grading of mortality): A (A indicates 80-100% mortality)

## N#CC1(c2cncc(Cl)c2)CC2CCC(C1)N2C(=O)N1CCOCC1 (stereo not drawn) [Compound 149]
  Score (grading of mortality): A (A indicates 80-100% mortality)

## Cc1cccc(CN2C3CCC2CC(C#N)(c2cncc(Cl)c2)C3)c1F (stereo not drawn) [Compound 263]
  Score (grading of mortality): A (A indicates 80-100% mortality)

## CN1C2CCC1CC(C#N)(c1cc(Cl)nc(Cl)c1)C2 (stereo not drawn) [Compound 65, exo-3-(2,6-dichloropyrid-4-yl)-endo-3-cyano-8-methyl-8-azabicyclo[3.2.1]octane]
  Score (grading of mortality): C (C indicates less than 40% mortality)

## N#CC(c1cccc(Cl)c1)N1C2CCC1CC(C#N)(c1cncc(Cl)c1)C2 (stereo not drawn) [Compound 215]
  Score (grading of mortality): A (A indicates 80-100% mortality)

## N#CC1(c2cncc(Cl)c2)CC2CCC(C1)N2Cc1cccc(C(=O)c2c(Cl)cccc2Cl)c1 (stereo not drawn) [Compound 232]
  Score (grading of mortality): A (A indicates 80-100% mortality)

## N#CC1(c2cncc(Cl)c2)CC2CCC(C1)N2Cc1ccc(Br)cc1 (stereo not drawn) [Compound 243]
  Score (grading of mortality): A (A indicates 80-100% mortality)

## N#CC1(c2cccnc2)CC2CCC(C1)N2c1ccccc1 (stereo not drawn) [Compound 61]
  Score (grading of mortality): A (A indicates 80-100% mortality)

## CCCN1C2CCC1CC(C#N)(c1cccnc1)C2 (stereo not drawn) [Compound 42, exo-3-(pyrid-3-yl)-endo-3-cyano-8-(prop-1-yl)-8-azabicyclo[3.2.1]octane]
  Score (grading of mortality): A (A indicates 80-100% mortality)
